Data taken from ChEMBL document CHEMBL1153239, “1-(3-Aryloxyaryl)benzimidazole sulfones are liver X receptor agonists” (Bioorg Med Chem Lett, 2010).

Assay: AUC (0 to last) in C57 mouse at 10 mg/kg, po
Assay type: ADME, organism-based
Parameters: time 0 - last, dose 10 mg/kg, route oral
Details: plasma

Structure (SMILES) | AUC(0-t)
Cc1nc2c(Cl)cccc2n1-c1cccc(Oc2cccc(S(C)(=O)=O)c2)c1 | 1500 ng·h/mL
CS(=O)(=O)c1cccc(Oc2cccc(-n3c(C(F)(F)F)nc4c(C(F)(F)F)cccc43)c2)c1 | 14300 ng·h/mL
CCc1nc2c(C(F)(F)F)cccc2n1-c1cccc(Oc2cccc(S(C)(=O)=O)c2)c1 | 1780 ng·h/mL
CS(=O)(=O)c1cccc(Oc2cccc(-n3cnc4c(C(F)(F)F)cccc43)c2)c1 | 12100 ng·h/mL
CCS(=O)(=O)c1cccc(Oc2cccc(-n3c(C)nc4c(Cl)cccc43)c2)c1 | 1780 ng·h/mL

More lines, now with the values ahead:

AUC(0-t) | Structure (SMILES)
2940 ng·h/mL | CCS(=O)(=O)c1cccc(Oc2cccc(-n3c(C)nc4c(C(F)(F)F)cccc43)c2)c1
1290 ng·h/mL | Cc1nc2c(C(F)(F)F)cccc2n1-c1cccc(Oc2cccc(S(=O)(=O)C(C)C)c2)c1
12900 ng·h/mL | Cc1nc2c(C(F)(F)F)cccc2n1-c1cccc(Oc2cccc(S(C)(=O)=O)c2)c1
